Laboratory results taken from patent publication US20240228458A1, “PYRIMIDINE DERIVATIVE HAVING PROTEIN KINASE INHIBITORY ACTIVITY, AND THERAPEUTIC PHARMACEUTICAL COMPOSITION COMPRISING SAME” (THERAPEX CO., LTD., priority 2021, published 2024).

Columns and labels:
Assay type in all cases: cell-based
[1] = system: Ba/F3 cells expressing L858R/T790M/C797S (EGFR-LTC); assay: Growth inhibition (GI50) of Ba/F3 cells expressing L858R/T790M/C797S (EGFR-LTC), Celltiter glo; conditions: Mus musculus, BaF3, 72 h
Method in brief: (§1)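 We seed Ba/F3 transfectants at 100,000 cells/ml, dose them with ten 4-fold compound dilutions (2 mM top stock, 0.5% DMSO) after 4 h, and culture for 72 h at 37 °C. CellTiter-Glo then reports viable cell number, from which the GI50 is fitted.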

[2] = system: Ba/F3 cells expressing del19/T790M/C797S (EGFR-DTC); assay: Growth inhibition (GI50) of Ba/F3 cells expressing del19/T790M/C797S (EGFR-DTC), Celltiter glo; conditions: Mus musculus, BaF3, 72 h
Method in brief: as §1

[3] = system: parental Ba/F3 cell line; assay: Growth inhibition (GI50) of the parental Ba/F3 cell line (not introduced with EGFR variants), Celltiter glo; conditions: Mus musculus, BaF3, 72 h, parental Ba/F3 cells
Method in brief: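 Parental Ba/F3 cells (100,000 cells/ml) were treated with 10-point, 4-fold compound dilutions (0.5% DMSO; top stock 2 mM) for 72 h at 37 °C, 5% CO2. Viability was read by CellTiter-Glo; GI50 is the concentration (μM) giving 50% growth inhibition.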

[4] = system: Ba/F3 cells expressing del19/T790M (EGFR-DT); assay: Growth inhibition (GI50) of Ba/F3 cells expressing del19/T790M (EGFR-DT), Celltiter glo; conditions: Mus musculus, BaF3, 72 h
Method in brief: as §1

[5] = system: Ba/F3 cells expressing L858R/T790M (EGFR-LT); assay: Growth inhibition (GI50) of Ba/F3 cells expressing L858R/T790M (EGFR-LT), Celltiter glo; conditions: Mus musculus, BaF3, 72 h
Method in brief: as §1

[6] = system: Ba/F3 cells expressing EGFR-wt; assay: Growth inhibition (GI50) of Ba/F3 cells expressing EGFR-wt, Celltiter glo; conditions: Mus musculus, BaF3, 72 h
Method in brief: as §1

Structure (SMILES) | GI50 [1] [nM] | GI50 [2] [nM] | GI50 [4] [nM] | GI50 [5] [nM] | GI50 [6] [nM] | GI50 [3] [nM]
COc1ccc(NS(C)(=O)=O)c(Nc2nc(Nc3cc(Cl)c(N4CCC(N5CCCN(C)CC5)CC4)cc3OC)ncc2Cl)c1 [Example 229, N-(2-((5-chloro-2-((5-chloro-2-methoxy-4-(4-(4-methyl-1,4-diazepan-1-yl)piperidin-1-yl)phenyl)amino)pyrimidin-4-yl)amino)-4-methoxyphenyl)methanesulfonamide] | 100 to 500 | 25 to 100 | 1 to 25 | 25 to 100 | 500 to 2000 | 2000 to 10000
COc1ccc(NS(C)(=O)=O)c(Nc2nc(Nc3cc(C)c(N4CCC(N5CCC(N(C)C)C5)CC4)cc3Cl)ncc2Cl)c1 (stereo not drawn) [Example 230, N-(2-((5-chloro-2-((2-chloro-4-(4-(3-(dimethylamino)pyrrolidin-1-yl)piperidin-1-yl)-5-methylphenyl)amino)pyrimidin-4-yl)amino)-4-methoxyphenyl)methanesulfonamide] | 100 to 500 | 100 to 500 | 25 to 100 | 100 to 500 | 500 to 2000 | 2000 to 10000
COc1ccc(NS(C)(=O)=O)c(Nc2nc(Nc3ccc(N4CCC(N5CCN(C)CC5)CC4)cc3OC)ncc2Cl)c1 [Example 231, N-(2-((5-chloro-2-((2-methoxy-4-(4-(4-methylpiperazin-1-yl)piperidin-1-yl)phenyl)amino)pyrimidin-4-yl)amino)-4-methoxyphenyl)methanesulfonamide] | 100 to 500 | 100 to 500 | 100 to 500 | 100 to 500 | 2000 to 10000 | 2000 to 10000
COc1ccc(NS(C)(=O)=O)c(Nc2nc(Nc3cc(C)c(N4CCC(N5CCCC(N(C)C)C5)CC4)cc3OC)ncc2Cl)c1 (stereo not drawn) [Example 232, N-(2-((5-chloro-2-((4-(3-(dimethylamino)-[1,4′-bipiperidin]-1′-yl)-2-methoxy-5-methylphenyl)amino)pyrimidin-4-yl)amino)-4-methoxyphenyl)methanesulfonamide] | 100 to 500 | 25 to 100 | 25 to 100 | 100 to 500 | 500 to 2000 | 2000 to 10000
COc1ccc(NS(C)(=O)=O)c(Nc2nc(Nc3cc(C)c(N4CCC(N5CCN(C6CC6)CC5)CC4)cc3OC)ncc2Cl)c1 [Example 233, N-(2-((5-chloro-2-((4-(4-(4-cyclopropylpiperazin-1-yl)piperidin-1-yl)-2-methoxy-5-methylphenyl)amino)pyrimidin-4-yl)amino)-4-methoxyphenyl)methanesulfonamide] | 25 to 100 | 25 to 100 | 25 to 100 | 25 to 100 | 500 to 2000 | 2000 to 10000
COc1ccc(NS(C)(=O)=O)c(Nc2nc(Nc3cc(C)c(N4CCC(N5CCC(C(F)(F)F)CC5)CC4)cc3OC)ncc2Cl)c1 [Example 234, N-(2-((5-chloro-2-((2-methoxy-5-methyl-4-(4-(trifluoromethyl)-[1,4′-bipiperidin]-1′-yl)phenyl)amino)pyrimidin-4-yl)amino)-4-methoxyphenyl)methanesulfonamide] | 100 to 500 | 100 to 500 | 100 to 500 | 100 to 500 | 2000 to 10000 | 2000 to 10000
COc1ccc(NS(C)(=O)=O)c(Nc2nc(Nc3cc(C)c(N4CCC(N5CCC(N(C)C)C5)CC4)cc3OC)ncc2Cl)c1 (stereo not drawn) [Example 235, N-(2-((5-chloro-2-((4-(4-(3-(dimethylamino)pyrrolidin-1-yl)piperidin-1-yl)-2-methoxy-5-methylphenyl)amino)pyrimidin-4-yl)amino)-4-methoxyphenyl)methanesulfonamide] | 100 to 500 | 25 to 100 | 25 to 100 | 100 to 500 | 500 to 2000 | 2000 to 10000
COc1ccc(NS(C)(=O)=O)c(Nc2nc(Nc3cc(C)c(N4CCC(N5CCCC(N(C)C)C5)CC4)cc3Cl)ncc2Cl)c1 (stereo not drawn) [Example 236, N-(2-((5-chloro-2-((2-chloro-4-(3-(dimethylamino)-[1,4′-bipiperidin]-1′-yl)-5-methylphenyl)amino)pyrimidin-4-yl)amino)-4-methoxyphenyl)methanesulfonamide] | 100 to 500 | 100 to 500 | 100 to 500 | 100 to 500 | 2000 to 10000 | 2000 to 10000
COc1ccc(NS(C)(=O)=O)c(Nc2nc(Nc3cc(Cl)c(N4CCC(N5CCCC(N(C)C)C5)CC4)cc3OC)ncc2Cl)c1 (stereo not drawn) [Example 237, N-(2-((5-chloro-2-((5-chloro-4-(3-(dimethylamino)-[1,4′-bipiperidin]-1′-yl)-2-methoxyphenyl)amino)pyrimidin-4-yl)amino)-4-methoxyphenyl)methanesulfonamide] | 1 to 25 | 100 to 500 | 100 to 500 | 1 to 25 | 500 to 2000 | 2000 to 10000

Continued, in another order:

GI50 [1] [nM] | GI50 [2] [nM] | GI50 [4] [nM] | GI50 [5] [nM] | GI50 [6] [nM] | Structure (SMILES) | GI50 [3] [nM]
100 to 500 | 2000 to 10000 | 2000 to 10000 | 100 to 500 | 2000 to 10000 | COc1nc(N2CCCN(C)CC2)ccc1Nc1ncc(Br)c(Nc2cc3c(cc2NS(C)(=O)=O)CCO3)n1 [Example 238, N-(6-((5-bromo-2-((2-methoxy-6-(4-methyl-1,4-diazepan-1-yl)pyridin-3-yl)amino)pyrimidin-4-yl)amino)-2,3-dihydrobenzofuran-5-yl)methanesulfonamide] | 2000 to 10000
100 to 500 | 500 to 2000 | 25 to 100 | 25 to 100 | 500 to 2000 | CN1CCN(C2CCN(c3ncc(Nc4ncc(Br)c(Nc5cc6c(cc5NS(C)(=O)=O)CCO6)n4)cc3F)CC2)CC1 [Example 239, N-(6-((5-bromo-2-((5-fluoro-6-(4-(4-methylpiperazin-1-yl)piperidin-1-yl)pyridin-3-yl)amino)pyrimidin-4-yl)amino)-2,3-dihydrobenzofuran-5-yl)methanesulfonamide] | 2000 to 10000
1 to 25 | 100 to 500 | 100 to 500 | 1 to 25 | 500 to 2000 | COc1nc(N2CCC(N3CCN(C)CC3)CC2)c(C)cc1Nc1ncc(Br)c(Nc2cc3c(cc2NS(C)(=O)=O)CCO3)n1 [Example 240, N-(6-((5-bromo-2-((2-methoxy-5-methyl-6-(4-(4-methylpiperazin-1-yl)piperidin-1-yl)pyridin-3-yl)amino)pyrimidin-4-yl)amino)-2,3-dihydrobenzofuran-5-yl)methanesulfonamide] | 2000 to 10000
25 to 100 | 100 to 500 | 100 to 500 | 1 to 25 | 500 to 2000 | COc1nc(N2CCC(N3CCN(C)CC3)CC2)c(C)cc1Nc1ncc(Cl)c(Nc2cc3c(cc2NS(C)(=O)=O)CCO3)n1 [Example 241, N-(6-((5-chloro-2-((2-methoxy-5-methyl-6-(4-(4-methylpiperazin-1-yl)piperidin-1-yl)pyridin-3-yl)amino)pyrimidin-4-yl)amino)-2,3-dihydrobenzofuran-5-yl)methanesulfonamide] | 2000 to 10000
25 to 100 | 2000 to 10000 | 500 to 2000 | 1 to 25 | 2000 to 10000 | CN1CCN(C2CCN(c3ncc(Nc4ncc(Cl)c(Nc5cc6c(cc5NS(C)(=O)=O)CCO6)n4)cc3F)CC2)CC1 [Example 242, N-(6-((5-chloro-2-((5-fluoro-6-(4-(4-methylpiperazin-1-yl)piperidin-1-yl)pyridin-3-yl)amino)pyrimidin-4-yl)amino)-2,3-dihydrobenzofuran-5-yl)methanesulfonamide] | 2000 to 10000
1 to 25 | 100 to 500 | 100 to 500 | 1 to 25 | 500 to 2000 | COc1cc(N2CCC(N3CCN(C)CC3)CC2)ccc1Nc1ncc(Br)c(Nc2cc3c(cc2NS(C)(=O)=O)CCO3)n1 [Example 243, N-(6-((5-bromo-2-((2-methoxy-4-(4-(4-methylpiperazin-1-yl)piperidin-1-yl)phenyl)amino)pyrimidin-4-yl)amino)-2,3-dihydrobenzofuran-5-yl)methanesulfonamide] | 2000 to 10000
1 to 25 | 25 to 100 | 1 to 25 | 1 to 25 | 25 to 100 | CN1CCN(C2CCN(c3ccc(Nc4ncc(Br)c(Nc5cc6c(cc5NS(C)(=O)=O)CCO6)n4)cc3F)CC2)CC1 [Example 244, N-(6-((5-bromo-2-((3-fluoro-4-(4-(4-methylpiperazin-1-yl)piperidin-1-yl)phenyl)amino)pyrimidin-4-yl)amino)-2,3-dihydrobenzofuran-5-yl)methanesulfonamide] | 100 to 500
1 to 25 | 25 to 100 | 100 to 500 | 1 to 25 | 2000 to 10000 | COc1cc(N2CCC(N3CCC(C(F)(F)F)CC3)CC2)c(C)cc1Nc1ncc(Br)c(Nc2cc3c(cc2NS(C)(=O)=O)CCO3)n1 [Example 245, N-(6-((5-bromo-2-((2-methoxy-5-methyl-4-(4-(trifluoromethyl)-[1,4′-bipiperidin]-1′-yl)phenyl)amino)pyrimidin-4-yl)amino)-2,3-dihydrobenzofuran-5-yl)methanesulfonamide] | 2000 to 10000
1 to 25 | 100 to 500 | 100 to 500 | 1 to 25 | 500 to 2000 | CN1CCN(C2CCN(c3ccc(Nc4ncc(Br)c(Nc5cc6c(cc5NS(C)(=O)=O)CCO6)n4)c(Cl)c3)CC2)CC1 [Example 246] | 2000 to 10000
